Laboratory results: patent publication US12600714B2, “Substituted pyrazinecarboxamide compounds for treating diseases related to EGFR mutation” (WIGEN BIOMEDICINE TECHNOLOGY (SHANGHAI) CO., LTD., priority 2020, dated 2026)

Legend:
A431 (EGFR WT) cells = test: Antiproliferative activity against A431 (EGFR WT) cells, Cell Titer Glow; format: cell-based; conditions: Homo sapiens, A-431, 72 h; three days after addition of compounds; read-out: Antiproliferative activity A431 wild-type (WT) IC50
Experimental: (§1) Antiproliferative Activity of the Compounds Disclosed Herein Against Ba/F3 (EGFR^del19/T790M/C797S) Triple-Mutant Cells and A431 (EGFR WT) Cells
(§2) • 3000 Ba/F3 cells carrying EGFR (del19/T790M/C797S) or 2000 A431 cells were seeded in a 384-well plate. After one day, serially diluted compounds were added (up to 500 nM for Ba/F3 cells and up to 10 μM for A431 cells). Three days after the addition of the compounds, Cell Titer Glow was added to evaluate cell growth and the percentage cell growth inhibition by the compounds and the IC50 values were calculated.

[1] = target: Ba/F3 (EGFR^del19/T790M/C797S) triple-mutant cells (Homo sapiens, UniProt P00533, T790M/C797S, cells depend on it, form not given); test: Antiproliferative activity against Ba/F3 (EGFR del19/T790M/C797S) triple-mutant cells, Cell Titer Glow; format: cell-based; conditions: three days after addition of compounds; read-out: Antiproliferative activity BaF3(EGFR^del19/T790M/C797S) IC50
Experimental: as §1, §2

EGFR (del19/T790M/C797S) = test: HTRF inhibitory activity assay against EGFR (del19/T790M/C797S) enzyme; format: biochemical
Procedure, shortened: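 Wild-type or mutant EGFR preincubated with serially diluted compound 10 min at 28 °C, then reacted 40 min at room temperature with biotinylated TK substrate and ATP. Phosphorylation detected by HTRF (Eu-cryptate anti-TK antibody, streptavidin-XL665, 60 min), 665/615 nm ratio; % inhibition and IC50 vs control.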

Ba/F3 (EGFR^del19/T790M/C797S) triple-mutant cells, sequence (P00533 with tags, fused parts or gaps DEL746-750/T790M/C797S, form open): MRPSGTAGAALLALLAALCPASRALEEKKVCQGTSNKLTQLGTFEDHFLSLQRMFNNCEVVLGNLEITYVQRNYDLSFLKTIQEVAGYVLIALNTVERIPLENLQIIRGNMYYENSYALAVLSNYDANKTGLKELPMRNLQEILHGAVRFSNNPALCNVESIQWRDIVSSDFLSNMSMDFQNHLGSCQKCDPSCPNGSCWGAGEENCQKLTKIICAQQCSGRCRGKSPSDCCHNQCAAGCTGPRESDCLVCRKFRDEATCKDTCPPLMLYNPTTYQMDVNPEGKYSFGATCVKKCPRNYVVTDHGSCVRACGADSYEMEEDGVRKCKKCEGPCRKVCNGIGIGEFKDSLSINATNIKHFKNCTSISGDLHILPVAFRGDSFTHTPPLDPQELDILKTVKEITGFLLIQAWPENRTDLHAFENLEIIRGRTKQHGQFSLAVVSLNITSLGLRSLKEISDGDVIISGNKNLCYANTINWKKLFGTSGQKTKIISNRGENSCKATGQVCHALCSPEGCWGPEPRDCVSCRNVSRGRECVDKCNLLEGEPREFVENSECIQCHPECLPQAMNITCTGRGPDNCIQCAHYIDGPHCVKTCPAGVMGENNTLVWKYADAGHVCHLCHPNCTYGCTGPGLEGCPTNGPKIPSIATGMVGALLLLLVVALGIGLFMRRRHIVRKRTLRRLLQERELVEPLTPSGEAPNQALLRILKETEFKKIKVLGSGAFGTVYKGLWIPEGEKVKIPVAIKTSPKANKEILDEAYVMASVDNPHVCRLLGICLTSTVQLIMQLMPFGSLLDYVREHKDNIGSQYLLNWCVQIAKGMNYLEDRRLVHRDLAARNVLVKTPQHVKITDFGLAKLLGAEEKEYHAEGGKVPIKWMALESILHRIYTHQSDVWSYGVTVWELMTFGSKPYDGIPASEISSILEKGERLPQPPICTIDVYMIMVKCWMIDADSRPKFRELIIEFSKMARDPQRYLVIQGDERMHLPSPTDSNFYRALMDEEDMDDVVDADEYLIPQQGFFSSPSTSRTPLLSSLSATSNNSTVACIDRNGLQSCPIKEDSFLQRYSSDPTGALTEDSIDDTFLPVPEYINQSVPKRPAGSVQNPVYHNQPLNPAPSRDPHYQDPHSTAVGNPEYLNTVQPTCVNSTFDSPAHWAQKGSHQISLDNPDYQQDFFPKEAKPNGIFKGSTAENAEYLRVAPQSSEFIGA

| SMILES | IC50 (A431 (EGFR WT) cells) | GI50 [1] | EGFR (del19/T790M/C797S) inhibition (%) (0.3 nM compound) (EGFR (del19/T790M/C797S)) |
| --- | --- | --- | --- |
| CN1CCN(C2CCN(c3ccc(Nc4nc(NC5CCOCC5)c(-c5ccccc5N(C)C)nc4C(N)=O)cc3)CC2)CC1 [compound 85] | 1500 nM | 357 nM |  |
| CN1CCN(C2CCN(c3ccc(Nc4nc(NC5CCOCC5)c(-c5cccc(N(C)C)c5)nc4C(N)=O)cc3)CC2)CC1 [compound 86] | 1700 nM | 21 nM |  |
| Cc1cc(-c2nc(C(N)=O)c(Nc3ccc(N4CCC(N5CCN(C)CC5)CC4)cc3)nc2NC2CCOCC2)ccn1 [compound 108] | 190 nM | 23 nM | +++ (+++ indicates an inhibition greater than 50%.) |
| Cc1n[nH]cc1-c1nc(C(N)=O)c(Nc2ccc(N3CCC(N4CCN(C)CC4)CC3)cc2)nc1NC1CCOCC1 [compound 110] | 460 nM | > 100 nM | + (+ indicates an inhibition less than or equal to 20%) |
| Cc1c[nH]nc1-c1nc(C(N)=O)c(Nc2ccc(N3CCC(N4CCN(C)CC4)CC3)cc2)nc1NC1CCOCC1 [compound 111] | 120 nM | 105 nM | + (+ indicates an inhibition less than or equal to 20%) |
| CO[C@H]1CC[C@H](Nc2nc(Nc3ccc(N4CCC(N5CCN(C)CC5)CC4)cc3)c(C(N)=O)nc2-c2ccccc2)CC1 [compound 115] | 2000 nM | 214 nM |  |
| CN1CCN(c2ccc(Nc3nc(NC4CCOCC4)c(-c4ccncc4)nc3C(N)=O)cc2)CC1 [compound 118] | 4100 nM | 82 nM | ++ (++ indicates an inhibition from 20% to 50%) |
| NC(=O)c1nc(-c2ccncc2)c(NC2CCOCC2)nc1Nc1ccccc1 [compound 119] | > 10000 nM | > 100 nM | + (+ indicates an inhibition less than or equal to 20%) |
| CN1CCN(Cc2ccc(Nc3nc(NC4CCOCC4)c(-c4ccncc4)nc3C(N)=O)cc2)CC1 [compound 120] | 680 nM | 119 nM | + (+ indicates an inhibition less than or equal to 20%) |
| CN1CCN(C2CCN(c3ccc(Nc4nc(NC5CCOCC5)c(-c5ccncc5)nc4C(N)=O)cc3F)CC2)CC1 [compound 122] | 380 nM | 40 nM | +++ (+++ indicates an inhibition greater than 50%.) |
| CN1CCN(C2CCN(c3ccc(Nc4nc(O[C@@H]5CCN(CCO)C5)c(-c5ccccc5)nc4C(N)=O)cc3)CC2)CC1 [compound 131] | > 10000 nM | > 100 nM |  |

Now from value to compound, other results behind:

| IC50 (A431 (EGFR WT) cells) | GI50 [1] | SMILES | EGFR (del19/T790M/C797S) inhibition (%) (0.3 nM compound) (EGFR (del19/T790M/C797S)) |
| --- | --- | --- | --- |
| 540 nM | 65 nM | CN1CCN(C2CCN(c3ccc(Nc4nc(N[C@H]5C[C@@H](O)C5)c(-c5ccccc5)nc4C(N)=O)cc3)CC2)CC1 [compound 31] | +++ (+++ indicates an inhibition greater than 50%.) |
| 190 nM | 26 nM | CN1CCN(C2CCN(c3ccc(Nc4nc(N[C@H]5C[C@H](O)C5)c(-c5ccccc5)nc4C(N)=O)cc3)CC2)CC1 [compound 32] | +++ (+++ indicates an inhibition greater than 50%.) |
| > 2000 nM | 48 nM | CN1CCN(C2CCN(c3ccc(Nc4nc(NC5CCOCC5)c(-c5cccnc5)nc4C(N)=O)cc3)CC2)CC1 [compound 37] | + (+ indicates an inhibition less than or equal to 20%) |
| 3500 nM | > 100 nM | CN1CCN(C2CCN(c3ccc(Nc4nc(NCCS(C)(=O)=O)c(-c5ccccc5)nc4C(N)=O)cc3)CC2)CC1 [compound 54] | + (+ indicates an inhibition less than or equal to 20%) |
| 2100 nM | > 100 nM | Cc1cnccc1-c1nc(C(N)=O)c(Nc2ccc(N3CCC(N4CCN(C)CC4)CC3)cc2)nc1NC1CCOCC1 [compound 74] |  |
| 280 nM | 52 nM | CN1CCN(C2CCN(c3ccc(Nc4nc(NC5CCOCC5)c(-c5cncs5)nc4C(N)=O)cc3)CC2)CC1 [compound 88] |  |
| 1600 nM | > 100 nM | CN1CCN(C2CCN(c3ccc(Nc4nc(NC5CCOCC5)c(-c5ccc(O)cc5)nc4C(N)=O)cc3)CC2)CC1 [compound 96] | ++ (++ indicates an inhibition from 20% to 50%) |
| > 10000 nM | 140 nM | NC(=O)c1nc(-c2ccncc2)c(NC2CCOCC2)nc1Nc1ccc(CN2CCOCC2)cc1 [compound 123] | ++ (++ indicates an inhibition from 20% to 50%) |
| > 10000 nM | > 100 nM | CN(C)c1ccc(Nc2nc(NC3CCOCC3)c(-c3ccncc3)nc2C(N)=O)cc1 [compound 124] | + (+ indicates an inhibition less than or equal to 20%) |
